From patent US11897867B2, “6-phenyl-4,5-dihydropyridazin-3(2H)-one derivatives as PDE3A and PDE3B inhibitors for treating cancer” (Bayer Aktiengesellschaft, priority 2017, dated 2024)

Key:
human full length PDE3B = target: T1, human full length PDE3B (Homo sapiens, UniProt Q13370); experiment: PDE3B enzyme inhibition (3H-cAMP Scintillation Proximity Assay); assay type: biochemical; conditions: PDE3B cell extract from Sf9 cells, 60 min room temperature; read-out: Target IC50 PDE3B IC50
T1 construct: Sf9 cells overexpressing human full length PDE3B; purchased SB Drug Discovery, UK; host or cells: Sf9 cells (cell extract)
How it was run: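 SPA with Sf9 cell extract overexpressing human full-length PDE3B, diluted for linear kinetics and <70% substrate turnover, in 50 mM Tris/HCl pH 7.5, 8.3 mM MgCl2, 1.7 mM EDTA, 0.2% BSA. [8-3H]cAMP substrate, 60 min at room temperature, stopped with yttrium SPA beads. IC50 from sigmoidal fit of % activity vs log concentration.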

NCI-H1734 = experiment: Cell proliferation measurement (Cell Titer Glo), NCI-H1734; assay type: cell-based; conditions: Homo sapiens, NCI-H1734 cells, 72 h treatment, read-out: Anti-proliferation IC50 NCI-H1734
Protocol: (§1) The antiproliferative activity of the compounds of the general formula (I) was examined in vitro in human cancer cells. For this purpose, 1000 cells (or 500 HeLa cells) were plated in 384-well plates with appropriate growth medium and incubated at 37° C. overnight. After 24 h, the cells on the test plate were treated with the compounds of the general formula (I) as and incubated at 37° C. for 72 h. The compounds were added to the cells by means of an HP D300 digital dispenser in a 10 (or more)-step dilution series. As control, the cells were treated with vehicle (DMSO at 0.3% final concentration). After 72 h, the cells were treated with 20 μl/well of 50% CTG solution in PBS (Promega Cell Titer Glo (catalogue #G755B and G756B)) and incubated at room temperature for 10 min, and luminescence was measured by means of a VICTOR V (Perkin Elmer), in order to determine cell viability at the end of treatment. The percentage effect on cell growth and the IC50 derived therefrom were determined for each test substance using the values from untreated wells (=percent viability). The IC50 values were calculated using a 4-parameter fit.

H4 = experiment: Cell proliferation measurement (Cell Titer Glo), H4; assay type: cell-based; conditions: Homo sapiens, H4 cells, 72 h treatment, read-out: Anti-proliferation IC50 H4
Protocol: as §1

human full length PDE3A = target: T2, human full length PDE3A (Homo sapiens, UniProt Q14432); experiment: PDE3A enzyme inhibition (3H-cAMP Scintillation Proximity Assay); assay type: biochemical; conditions: PDE3A cell extract from Sf9 cells, 60 min room temperature; read-out: Target IC50 PDE3A IC50
T2 construct: Sf9 cells overexpressing human full length PDE3A; purchased SB Drug Discovery, UK; host or cells: Sf9 cells (cell extract)
How it was run: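 Sf9 cell extract overexpressing human full-length PDE3A, diluted for linear kinetics (<70% substrate used), in 50 mM Tris/HCl pH 7.5, 8.3 mM MgCl2, 1.7 mM EDTA, 0.2% BSA. [8-3H]cAMP substrate, 60 min at room temperature, yttrium SPA bead read-out; IC50 from sigmoidal curves of % activity.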

[1] = tested on: HeLa cells (cervical cancer); experiment: Cell proliferation measurement (Cell Titer Glo), HeLa; assay type: cell-based; conditions: Homo sapiens, 72 h treatment, read-out: Anti-proliferation IC50 HeLa (Cervical cancer)
How it was run: (§2)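 Cells (1000/well; 500 for HeLa) plated overnight at 37 °C, then exposed to a ≥10-point compound dilution series for 72 h at 37 °C, DMSO 0.3% final as vehicle. Viability read by CellTiter-Glo luminescence; IC50 from 4-parameter fit against untreated wells.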

SK-MEL-3 (melanoma) = experiment: Cell proliferation measurement (Cell Titer Glo), SK-MEL-3; assay type: cell-based; conditions: Homo sapiens, SK-MEL3, SK-MEL-3 cells, 72 h treatment, read-out: Anti-proliferation IC50 SK-MEL-3 (melanoma)
How it was run: as §2

IGR-37 (melanoma) = experiment: Cell proliferation measurement (Cell Titer Glo), IGR-37; assay type: cell-based; conditions: Homo sapiens, IGR-37 cells, 72 h treatment, read-out: Anti-proliferation IC50 IGR-37 (melanoma)
Protocol: as §1

T2 sequence (Q14432 whole entry): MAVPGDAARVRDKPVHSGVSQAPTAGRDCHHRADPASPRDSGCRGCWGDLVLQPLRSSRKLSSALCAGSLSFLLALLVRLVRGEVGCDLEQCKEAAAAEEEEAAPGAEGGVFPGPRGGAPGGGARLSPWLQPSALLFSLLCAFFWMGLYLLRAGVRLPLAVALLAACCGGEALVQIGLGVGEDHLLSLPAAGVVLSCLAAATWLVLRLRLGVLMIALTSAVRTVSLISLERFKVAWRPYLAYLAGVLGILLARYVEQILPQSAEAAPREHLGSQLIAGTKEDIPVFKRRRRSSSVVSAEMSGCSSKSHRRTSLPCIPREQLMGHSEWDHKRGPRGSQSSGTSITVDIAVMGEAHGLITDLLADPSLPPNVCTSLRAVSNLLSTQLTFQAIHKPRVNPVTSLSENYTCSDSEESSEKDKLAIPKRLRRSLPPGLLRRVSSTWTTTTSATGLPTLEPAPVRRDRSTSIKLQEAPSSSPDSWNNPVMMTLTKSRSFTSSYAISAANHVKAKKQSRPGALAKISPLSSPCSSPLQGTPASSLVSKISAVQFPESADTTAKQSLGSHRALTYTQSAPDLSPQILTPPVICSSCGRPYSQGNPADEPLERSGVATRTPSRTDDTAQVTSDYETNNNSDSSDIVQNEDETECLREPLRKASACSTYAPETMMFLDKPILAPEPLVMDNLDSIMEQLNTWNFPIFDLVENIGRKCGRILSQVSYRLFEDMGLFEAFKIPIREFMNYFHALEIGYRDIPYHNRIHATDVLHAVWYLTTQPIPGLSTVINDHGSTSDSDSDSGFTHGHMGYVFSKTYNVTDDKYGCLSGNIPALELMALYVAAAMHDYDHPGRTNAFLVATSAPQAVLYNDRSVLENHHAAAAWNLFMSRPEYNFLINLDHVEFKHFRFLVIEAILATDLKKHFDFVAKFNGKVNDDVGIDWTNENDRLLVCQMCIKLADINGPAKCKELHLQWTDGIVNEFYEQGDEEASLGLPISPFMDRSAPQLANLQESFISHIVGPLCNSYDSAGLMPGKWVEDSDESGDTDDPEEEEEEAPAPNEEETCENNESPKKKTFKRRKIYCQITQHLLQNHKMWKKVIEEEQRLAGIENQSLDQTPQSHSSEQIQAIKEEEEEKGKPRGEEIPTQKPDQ
T1 sequence (Q13370 whole entry): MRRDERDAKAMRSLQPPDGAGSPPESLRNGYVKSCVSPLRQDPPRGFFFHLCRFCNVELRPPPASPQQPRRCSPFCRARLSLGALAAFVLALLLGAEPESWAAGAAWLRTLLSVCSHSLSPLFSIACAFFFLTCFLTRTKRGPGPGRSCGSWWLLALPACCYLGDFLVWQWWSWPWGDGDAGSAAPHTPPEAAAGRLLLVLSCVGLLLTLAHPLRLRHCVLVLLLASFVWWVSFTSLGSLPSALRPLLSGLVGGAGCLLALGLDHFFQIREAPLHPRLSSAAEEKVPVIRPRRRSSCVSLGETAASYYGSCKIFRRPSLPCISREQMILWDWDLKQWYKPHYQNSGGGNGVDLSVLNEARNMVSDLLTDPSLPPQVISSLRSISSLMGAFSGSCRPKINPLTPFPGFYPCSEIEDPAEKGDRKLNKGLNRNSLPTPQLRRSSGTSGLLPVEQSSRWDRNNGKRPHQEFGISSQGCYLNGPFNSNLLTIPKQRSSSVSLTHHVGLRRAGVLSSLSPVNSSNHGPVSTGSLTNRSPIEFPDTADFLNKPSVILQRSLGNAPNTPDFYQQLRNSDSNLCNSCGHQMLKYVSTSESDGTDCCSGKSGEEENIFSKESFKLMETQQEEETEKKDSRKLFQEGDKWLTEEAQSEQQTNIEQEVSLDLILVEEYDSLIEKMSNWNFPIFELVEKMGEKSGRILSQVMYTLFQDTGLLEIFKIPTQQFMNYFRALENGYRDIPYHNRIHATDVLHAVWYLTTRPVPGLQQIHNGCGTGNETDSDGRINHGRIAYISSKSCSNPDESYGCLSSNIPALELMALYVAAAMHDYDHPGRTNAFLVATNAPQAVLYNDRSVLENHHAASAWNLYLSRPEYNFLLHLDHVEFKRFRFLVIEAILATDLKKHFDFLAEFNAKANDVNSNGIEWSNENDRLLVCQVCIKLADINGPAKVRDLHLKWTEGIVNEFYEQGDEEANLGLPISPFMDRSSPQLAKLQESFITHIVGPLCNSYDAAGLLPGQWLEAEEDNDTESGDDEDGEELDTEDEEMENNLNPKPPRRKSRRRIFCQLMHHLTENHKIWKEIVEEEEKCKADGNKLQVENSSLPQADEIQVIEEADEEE

IC50 (human full length PDE3B) [nM]	IC50 (NCI-H1734) [nM]	IC50 (human full length PDE3A) [nM]	IC50 [1] [nM]	IC50 (SK-MEL-3 (melanoma)) [nM]	IC50 (IGR-37 (melanoma)) [nM]	Compound	IC50 (H4) [nM]
250	32	310	5.59	13.8	–	O=C1CCC(c2cc(F)c(N3CCC(F)(F)C3)c(F)c2)=NN1 [Example 13, 6-[4-(3,3-Difluoropyrrolidin-1-yl)-3,5-difluorophenyl]-4,5-dihydropyridazin-3(2H)-one]	41.1
77	18.8	180	2.16	5.84	–	O=C1CCC(c2cc(F)c(N3CC4CC4C3)c(F)c2)=NN1 (centres unmarked) [Example 14, 6-[4-(3-Azabicyclo[3.1.0]hex-3-yl)-3,5-difluorophenyl]-4,5-dihydropyridazin-3(2H)-one]	30.9
150	27.7	190	4.59	8.42	–	Cc1cc(C2=NNC(=O)CC2)ccc1-c1ccc(F)cc1 [Example 3, 6-(4′-Fluoro-2-methylbiphenyl-4-yl)-4,5-dihydropyridazin-3(2H)-one]	36.6
73	–	59	6.9	16.8	32.9	O=C1CCC(c2cc(Cl)c(N3CCOCC3)c(Cl)c2)=NN1 [Example 124, 6-[3,5-dichloro-4-(morpholin-4-yl)phenyl]-4,5-dihydropyridazin-3(2H)-one]	–
